Ki data for 1 compound are collected here from patent US20080249154A1, “Preventive and/or Therapeutic Agent For Disease In Which Mitochondrial Benzodiazephine Receptor Participates” (ONO PHARMACEUTICAL CO., LTD., priority 2003, published 2008).

For the test, the target named is T1, MBR (mitochondrial benzodiazepine receptor) (Rattus norvegicus, UniProt P16257).
T1 construct: from tissue; host or cells: male Wistar rat whole brain with cerebellum removed, crude membrane pellet
Briefly: Receptor binding experiment: [3H]PK11195 competition binding, rat brain membrane preparation. To be noted: [3H]PK11195 0.5 or 1 nmol/L, 1 hour at room temperature, calculated by Cheng and Prusoff formula from KD and IC50, read-out: Ki value (inhibition constant). The procedure: The affinity of the compounds in the present invention to MBR was determined using rat brain membrane preparation. In addition, the measurement in the present invention was improved the accuracy of measurement and the sensitivity of measurement for evaluating the compounds in the present invention as follows. After male Wister rats were decapitated to extirpate the whole brain and cerebellums were removed. They were homogenized in ice-cold 50 mmol/L Tris-HCL buffer solution (pH7.4), centrifuged and the obtained pellets were washed. The pellets resuspended and adjusted to about 1 mg/mL were used as rat brain membrane preparations for binding assay. The binding assay were experimented using [^3H]PK11195 as a MBR selective ligand. […]
To determine the amount of total binding in saturation binding experiment, membrane preparations, various concentrations of [^3H]PK11195, final concentration: 0.5 vol % dimethylsulfoxide (DMSO) and 50 mmol/L Tris-HCL buffer solution (pH7.4) were mixed (total volume 200 μL) and were incubated for 1 hour at room temperature. […] The filter was dried and then the radioactivity on the filter was measured by liquid scintillation counter. The data obtained by the binding experiments were Scatchard analyzed using analysis software, KELL (Ver.6, BIOSOFT) and the dissociation constant (KD value) was determined. […]

With `O=C(CCc1ccccc1)Nc1c2c(nn1-c1ccc(Cl)cc1)CSC2` [Example 8(8), N-[2-(4-chlorophenyl)-2,6-dihydro-4H-thieno[3,4-c]pyrazol-3-yl]-3-phenylpropanamide], the Ki (usually a measure of affinity in units of concentration, obtained from inhibition or displacement) was 99 nM.
